# Test results: PMC10882696, “Novel 5-Substituted Oxindole Derivatives as Bruton’s Tyrosine Kinase Inhibitors: Design, Synthesis, Docking, Molecular Dynamics Simulation, and Biological Evaluation” (ACS Omega, 2024)
# “Also recorded” adds a separate entry of the source.
# What was measured:
# A549 = assay: 3 day MTS cytotoxicity assay, A549; format: cell-based; details: Homo sapiens; A549, ITK/BTK-negative; mean ± SD, n ≥ 6
# Method: (§1) The cytotoxic activity of all the 10 compounds was tested under in vitro conditions using a 3 day standard 3-(4,5-dimethylthiazol-2yl)-5-(3-carboxymethoxyphenyl)-2-(4-sulfophenyl)-2H-tetrazolium reduction assay in 384-well plates on a robotic high-throughput screening platform (HighResBio, Boston, MA) as described elsewhere.[38] The IC50 values were calculated from the respective dose–response curves of compounds with Dotmatics (San Diego, CA, USA).
# CCRF-CEM = assay: 3 day MTS cytotoxicity assay, CCRF-CEM; format: cell-based; details: Homo sapiens, ITK-positive, mean ± SD, n ≥ 6
# Method: as §1
# U2OS = assay: 3 day MTS cytotoxicity assay, U2OS; format: cell-based; details: Homo sapiens, ITK/BTK-negative, mean ± SD, n ≥ 6
# Method: as §1
# HCT116 = assay: 3 day MTS cytotoxicity assay, HCT116; format: cell-based; details: Homo sapiens, HCT-116; HCT116, ITK/BTK-negative; mean ± SD, n ≥ 6
# Method: as §1
# JURKAT = assay: 3 day MTS cytotoxicity assay, JURKAT; format: cell-based; details: Homo sapiens, ITK-positive, mean ± SD, n ≥ 6
# Method: as §1
# HCT116p53^–/– = assay: 3 day MTS cytotoxicity assay, HCT116p53-/-; format: cell-based; details: ITK/BTK-negative, mean ± SD, n ≥ 6
# Method: as §1
# K562 = assay: 3 day MTS cytotoxicity assay, K562; format: cell-based; details: Homo sapiens; K562, BTK-positive; mean ± SD, n ≥ 6
# Method: as §1
# MRC-5 = assay: 3 day MTS cytotoxicity assay, MRC-5; format: cell-based; details: Homo sapiens, MRC5; MRC-5, non-cancer fibroblasts; mean ± SD, n ≥ 6
# Method: as §1
# BJ = assay: 3 day MTS cytotoxicity assay, BJ; format: cell-based; details: Homo sapiens, non-cancer fibroblasts, mean ± SD, n ≥ 6
# Method: as §1
# RAMOS = assay: 3 day MTS cytotoxicity assay, RAMOS; format: cell-based, human; details: for activity in RAMOS cells: BTK-high; for IC50: Homo sapiens, Ramos, BTK-positive, mean ± SD, n ≥ 6
# Method: as §1
# [1] = Parallel artificial membrane permeability assay (PAMPA); format: in vitro ADME; details: passive diffusion
# Method: (§2) Selected compounds were assayed for human plasma and liver microsomal stability in vitro, PAMPA and cellular permeability models of gastrointestinal resorption, and the blood–brain barrier using Caco-2 and MDR1-MCDK cells as previously described.[38] Samples were analyzed in an Agilent RapidFire 300 High-Throughput Mass Spectrometry System (RF-MS; Agilent, Wakefield, MA) with subsequent detection in a Qtrap 5500 mass spectrometer (AB Sciex, Concord, Canada).
# pBTK (Tyr223) [2] = assay: Western blot of pBTK in LPS-stimulated RAMOS cells; format: cell-based, human; details: RAMOS cells stimulated with LPS 10 min, then 50 μM for 3 h
# Method: (§3) RAMOS cells were plated at 0.5 × 10^6/mL density in six-well plates. After 24 h, cells were treated with compounds at concentrations of 1, 10, and 50 μM for 24 h. The concentration of the vehicle was 0.5% in the highest test drug concentration (50 μM). LPS stimulation of RAMOS cells followed by drug treatment was performed as described previously.[19] […]
# (§4) Primary antibodies used were purchased from Cell Signaling Technology, Inc., Massachusetts, USA, and included BTK (1:1000; Cat. # 3533S), phosphor-BTK (Tyr223) (1:1000; Cat # 5082S), p44/42 MAPK (ERK1/2) (1:1000; Cat # 9102S), phospho-p44/42 MAPK (ERK1/2) (Thr202/Tyr204) (1:1000; Cat # 4376S), p38 MAPK (1:1000; Cat # 9212S), phospho-p38 MAPK (Thr180/Tyr182) (1:1000; Cat # 9211S), Lyn (C13F9) (1:1000: Cat # 2796), phospho-Lyn (Tyr507) (1:1000; Cat #2731), Syk (1:1000; Cat # 2712), phospho-Syk (Tyr525/526) (C87C1) (1:1000; Cat # 2710), and GAPDH (1:4000; Cat. # 2118). […] Band intensities were quantified using NIH ImageJ Software (NIH, Bethesda, Maryland, USA).
# [3] = MDR1-MDCK permeability (blood–brain barrier model); format: in vitro ADME; details: dog
# Method: as §2
# MDR1 = assay: MDR1-MDCK permeability (blood–brain barrier model); format: in vitro ADME; details: dog
# Method: as §2
# MDR1-MDCK cells = assay: MDR1-MDCK permeability (blood–brain barrier model); format: in vitro ADME
# Method: as §2
# Plasma stability = format: in vitro ADME; details: human plasma, in vitro
# Method: as §2
# p-p38 (Thr180/Tyr182) = assay: Western blot of p-p38 in LPS-stimulated RAMOS cells; format: cell-based, human; details: RAMOS cells stimulated with LPS 10 min, then 50 μM for 3 h
# Method: as §3, §4
# Lyn phosphorylation = assay: Western blot of Lyn phosphorylation in RAMOS cells; format: cell-based, human; details: 24 h
# Method: as §3, §4
# [4] = Caco-2 permeability (gastrointestinal resorption model); format: in vitro ADME; details: human, Caco-2
# Method: as §2
# Caco-2 cells = assay: as above; format: in vitro ADME; details: for active efflux: Caco-2; for Caco-2 category: Caco-2 permeability
# Method: as §2
# Plasma protein binding = format: in vitro ADME; details: in vitro, read-out: plasma protein binding (% bound) (converted)
# [5] = Liver microsomal stability; format: in vitro ADME; details: human liver microsomes, intrinsic clearance category
# Method: as §2
# Syk phosphorylation = assay: Western blot of Syk phosphorylation in RAMOS cells; format: cell-based, human; details: 24 h
# Method: as §3, §4
# pBTK (Tyr223) [6] = assay: Western blot of BTK phosphorylation in RAMOS cells; format: cell-based, human
# Method: as §3, §4
# pERK 1/2 (Thr202/Tyr204) = assay: Western blot of pERK1/2 in LPS-stimulated RAMOS cells; format: cell-based, human; details: RAMOS cells stimulated with LPS 10 min, then 50 μM for 3 h
# Method: as §3, §4
SMILES,IC50 (A549),IC50 (CCRF-CEM),IC50 (U2OS),IC50 (HCT116),IC50 (JURKAT),IC50 (HCT116p53^–/–),IC50 (K562),IC50 (MRC-5),IC50 (BJ),activity in RAMOS cells (RAMOS),IC50 (RAMOS),PAMPA category [1],recovery [3],Papp (MDR1),efflux ratio (MDR1),MDR1-MDCK CNS (−ive/+ive) (MDR1-MDCK cells),active efflux (MDR1-MDCK cells),plasma stability (category) (Plasma stability),Papp [4],efflux ratio [4],also measured
"CC(C)C(=O)N1CCN(S(=O)(=O)c2ccc3c(c2)C(=C2CCCC2)C(=O)N3)CC1 [9a, 3-Cyclopentylidene-5-((4-isobutyrylpiperazin-1-yl)sulfonyl)indolin-2-one]",> 50 µM,> 50 µM,> 50 µM,> 50 µM,> 50 µM,> 50 µM,> 50 µM,> 50 µM,> 50 µM,no activity,> 50 µM,–,–,–,–,–,–,–,–,–,melting point: 165 to 171 °C
"O=C1Nc2ccc(S(=O)(=O)N3CCN(C(=O)C4CCCCC4)CC3)cc2C1=C1CCCC1 [9b, 5-((4-(Cyclohexanecarbonyl)piperazin-1-yl)sulfonyl)-3-cyclopentylideneindolin-2-one]",> 50 µM,35.5 ± 7.05 µM,> 50 µM,> 50 µM,> 50 µM,> 50 µM,> 50 µM,> 50 µM,> 50 µM,selective cytotoxicity; also recorded: showed activity; also recorded: good anticancer activity in the micromole range,3.04 ± 0.56 µM,low,60.2%,2.92 ×10⁻⁶ cm/s,9.3,CNS –ive,active efflux: yes,stable,3.18 ×10⁻⁶ cm/s,2.69,pBTK (Tyr223) activation (pBTK (Tyr223) [2]): no significant effect; p-p38 (Thr180/Tyr182) levels (p-p38 (Thr180/Tyr182)): only evidenced on p-p38 (Thr180/Tyr182) levels; Lyn phosphorylation (Lyn phosphorylation): significantly inhibited; recovery [4]: 45.4%; active efflux (Caco-2 cells): active efflux: yes; Caco-2 category (Caco-2 cells): low permeability and low; fraction unbound (Plasma protein binding): 0.114; microsomal stability (clearance) [5]: metabolized quickly by microsomes and high
"O=C1Nc2ccc(S(=O)(=O)N3CCN(C(=O)c4cccc(Br)c4)CC3)cc2C1=C1CCCC1 [9f, 5-((4-(3-Bromobenzoyl)piperazin-1-yl)sulfonyl)-3-cyclopentylideneindolin-2-one]",> 50 µM,> 50 µM,> 50 µM,> 50 µM,> 50 µM,> 50 µM,> 50 µM,> 50 µM,> 50 µM,selective cytotoxicity; also recorded: showed activity; also recorded: good anticancer activity in the micromole range,2.06 ± 0.43 µM,low,79.2%,3.2 ×10⁻⁶ cm/s,6.93,CNS –ive,active efflux: yes,stable,10.6 ×10⁻⁶ cm/s,3.79,recovery [4]: 74.5%; active efflux (Caco-2 cells): active efflux: yes; Caco-2 category (Caco-2 cells): medium permeability; also recorded: moderate; fraction unbound (Plasma protein binding): 0.043; microsomal stability (clearance) [5]: medium
"CCCCC(=O)N1CCN(S(=O)(=O)c2ccc3c(c2)C(=C2CCCC2)C(=O)N3)CC1 [9h, 3-Cyclopentylidene-5-((4-pentanoylpiperazin-1-yl)sulfonyl)indolin-2-one]",> 50 µM,46.1 ± 3.13 µM,> 50 µM,> 50 µM,> 50 µM,> 50 µM,> 50 µM,> 50 µM,> 50 µM,selective cytotoxicity; also recorded: showed activity; also recorded: good anticancer activity in the micromole range,2.75 ± 0.8 µM,medium,86.9%,5.43 ×10⁻⁶ cm/s,13.1,CNS –ive,active efflux: yes,stable,7.18 ×10⁻⁶ cm/s,3.34,"pBTK (Tyr223) activation (pBTK (Tyr223) [2]): significantly inhibited; p-p38 (Thr180/Tyr182) levels (p-p38 (Thr180/Tyr182)): decrease; Lyn phosphorylation (Lyn phosphorylation): without affecting; also recorded: did not affect; Syk phosphorylation (Syk phosphorylation): without affecting; also recorded: did not affect; pBTK (Tyr223) levels (pBTK (Tyr223) [6]; 24 h, 50 μM): decrease was significant; pBTK (Tyr223) levels (pBTK (Tyr223) [6]; 24 h, 1, 10, and 50 μM): selective inhibition of pBTK (Tyr223); recovery [4]: 63.2%; active efflux (Caco-2 cells): active efflux: yes; Caco-2 category (Caco-2 cells): medium permeability; also recorded: moderate; fraction unbound (Plasma protein binding): 0.0334; microsomal stability (clearance) [5]: medium; pERK 1/2 (Thr202/Tyr204) levels (pERK 1/2 (Thr202/Tyr204)): decrease"
